Reference: patent US11629143B2, “HipK4 inhibitors and uses thereof” (Vibliome Therapeutics, LLC, priority 2020, dated 2023)

What was measured:
Test in all cases: Kinase panel (mobility shift)
Assay type in all cases: biochemical
[1] = target: P38-a (Homo sapiens, UniProt Q16539); conditions: at 5 um
Outline: (§1)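 Each kinase was incubated with a fluorescently labeled substrate and compound in a standard reaction mix. After the reaction was stopped, product and substrate were separated on microfluidic chips by electrophoretic mobility shift. Activity came from comparing product and substrate peak fluorescence, graded A (95% or greater), B (90%-94%) or C (80%-89%) at 5 um.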

[2] = target: SRC (Homo sapiens, UniProt P12931)
SRC, sequence (P12931 whole entry, species assumed): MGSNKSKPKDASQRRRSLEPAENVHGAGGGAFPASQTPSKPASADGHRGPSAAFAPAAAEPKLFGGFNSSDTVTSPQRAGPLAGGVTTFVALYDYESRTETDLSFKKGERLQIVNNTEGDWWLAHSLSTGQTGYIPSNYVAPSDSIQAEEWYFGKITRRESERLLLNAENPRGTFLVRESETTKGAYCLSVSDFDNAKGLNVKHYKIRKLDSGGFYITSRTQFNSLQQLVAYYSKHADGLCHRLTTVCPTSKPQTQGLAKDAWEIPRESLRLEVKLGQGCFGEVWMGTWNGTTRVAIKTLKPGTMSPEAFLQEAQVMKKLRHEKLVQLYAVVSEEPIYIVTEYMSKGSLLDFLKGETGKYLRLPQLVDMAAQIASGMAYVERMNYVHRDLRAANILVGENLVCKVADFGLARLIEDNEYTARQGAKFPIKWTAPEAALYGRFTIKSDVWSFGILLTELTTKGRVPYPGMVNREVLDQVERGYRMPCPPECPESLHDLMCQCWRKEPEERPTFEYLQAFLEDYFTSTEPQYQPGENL
Outline: as §1

[3] = target: T1, EPH-A8 (Homo sapiens, UniProt P29322)
T1 sequence (P29322 28-1005): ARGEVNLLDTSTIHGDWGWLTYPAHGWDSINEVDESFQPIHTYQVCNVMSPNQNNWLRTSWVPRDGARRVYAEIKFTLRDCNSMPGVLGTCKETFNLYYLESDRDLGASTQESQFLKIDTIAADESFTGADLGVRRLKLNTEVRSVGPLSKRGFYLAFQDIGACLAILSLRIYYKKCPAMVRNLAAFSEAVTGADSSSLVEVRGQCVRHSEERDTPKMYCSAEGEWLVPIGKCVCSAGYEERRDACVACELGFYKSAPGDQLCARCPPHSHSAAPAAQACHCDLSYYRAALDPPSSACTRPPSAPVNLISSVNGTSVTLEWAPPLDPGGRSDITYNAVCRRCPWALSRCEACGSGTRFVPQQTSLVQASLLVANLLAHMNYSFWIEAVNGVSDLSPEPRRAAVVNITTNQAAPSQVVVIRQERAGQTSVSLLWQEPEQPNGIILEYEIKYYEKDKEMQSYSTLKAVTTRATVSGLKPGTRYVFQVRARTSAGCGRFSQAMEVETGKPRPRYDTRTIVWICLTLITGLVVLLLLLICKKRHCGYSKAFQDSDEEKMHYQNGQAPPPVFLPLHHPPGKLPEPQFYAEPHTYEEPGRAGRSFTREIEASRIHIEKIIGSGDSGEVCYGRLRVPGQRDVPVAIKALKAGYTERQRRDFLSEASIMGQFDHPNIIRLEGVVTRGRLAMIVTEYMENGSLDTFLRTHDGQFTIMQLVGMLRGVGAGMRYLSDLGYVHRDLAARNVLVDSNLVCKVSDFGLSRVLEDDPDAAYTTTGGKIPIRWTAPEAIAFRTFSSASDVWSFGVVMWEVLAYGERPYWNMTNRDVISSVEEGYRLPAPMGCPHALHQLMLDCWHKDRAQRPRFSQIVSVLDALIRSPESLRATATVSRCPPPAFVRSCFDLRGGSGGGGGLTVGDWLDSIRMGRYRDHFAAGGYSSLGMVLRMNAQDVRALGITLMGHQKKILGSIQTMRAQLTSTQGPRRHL
Outline: as §1

[4] = target: T2, TYRO3 (Homo sapiens, UniProt Q06418)
T2 sequence (Q06418 41-890): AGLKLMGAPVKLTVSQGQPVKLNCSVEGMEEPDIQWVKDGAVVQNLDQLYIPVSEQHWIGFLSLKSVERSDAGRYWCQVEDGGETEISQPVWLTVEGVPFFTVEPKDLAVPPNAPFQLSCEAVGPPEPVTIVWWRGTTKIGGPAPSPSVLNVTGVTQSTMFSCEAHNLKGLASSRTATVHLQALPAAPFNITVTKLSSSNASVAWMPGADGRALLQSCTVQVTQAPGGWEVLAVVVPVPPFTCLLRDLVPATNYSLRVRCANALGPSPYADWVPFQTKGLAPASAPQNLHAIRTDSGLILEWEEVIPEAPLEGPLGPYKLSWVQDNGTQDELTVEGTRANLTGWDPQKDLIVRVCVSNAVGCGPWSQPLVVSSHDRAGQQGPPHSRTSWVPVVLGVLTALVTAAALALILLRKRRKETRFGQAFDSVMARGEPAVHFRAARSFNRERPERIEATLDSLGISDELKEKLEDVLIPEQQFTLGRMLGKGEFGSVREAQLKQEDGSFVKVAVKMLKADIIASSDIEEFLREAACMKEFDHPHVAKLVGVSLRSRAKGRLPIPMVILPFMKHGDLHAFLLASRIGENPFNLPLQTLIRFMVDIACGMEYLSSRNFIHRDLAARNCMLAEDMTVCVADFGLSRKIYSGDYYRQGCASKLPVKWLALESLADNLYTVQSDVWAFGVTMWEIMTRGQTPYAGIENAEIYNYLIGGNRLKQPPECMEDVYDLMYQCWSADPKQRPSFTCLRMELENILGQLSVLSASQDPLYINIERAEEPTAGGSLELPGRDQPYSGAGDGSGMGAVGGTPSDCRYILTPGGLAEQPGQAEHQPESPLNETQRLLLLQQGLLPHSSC
Outline: as §1

[5] = target: TRKB (Homo sapiens, UniProt Q16620)
TRKB, sequence (Q16620 32-822, species assumed): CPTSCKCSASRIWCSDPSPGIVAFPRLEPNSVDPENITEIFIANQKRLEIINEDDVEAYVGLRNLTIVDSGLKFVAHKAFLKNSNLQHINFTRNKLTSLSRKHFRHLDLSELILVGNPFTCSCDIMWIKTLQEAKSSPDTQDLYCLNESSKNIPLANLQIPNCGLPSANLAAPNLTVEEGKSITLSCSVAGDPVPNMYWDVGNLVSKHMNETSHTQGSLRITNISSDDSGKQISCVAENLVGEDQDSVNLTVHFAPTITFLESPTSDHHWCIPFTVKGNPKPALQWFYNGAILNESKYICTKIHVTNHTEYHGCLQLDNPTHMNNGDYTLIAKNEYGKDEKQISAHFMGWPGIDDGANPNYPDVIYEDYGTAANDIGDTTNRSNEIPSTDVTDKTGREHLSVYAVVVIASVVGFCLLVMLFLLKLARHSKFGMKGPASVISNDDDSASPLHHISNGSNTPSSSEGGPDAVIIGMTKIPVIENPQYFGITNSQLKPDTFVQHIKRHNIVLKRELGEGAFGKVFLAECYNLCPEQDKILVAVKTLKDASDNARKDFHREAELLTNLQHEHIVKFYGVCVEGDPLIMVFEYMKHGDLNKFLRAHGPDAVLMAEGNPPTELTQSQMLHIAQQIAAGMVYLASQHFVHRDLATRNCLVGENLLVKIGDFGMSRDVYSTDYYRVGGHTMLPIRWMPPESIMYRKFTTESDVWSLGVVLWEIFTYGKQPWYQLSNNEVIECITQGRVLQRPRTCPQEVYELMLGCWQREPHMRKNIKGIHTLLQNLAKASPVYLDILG
Outline: as §1

[6] = target: TIE2 (Homo sapiens, UniProt Q02763)
TIE2, sequence (Q02763 23-1124, species assumed): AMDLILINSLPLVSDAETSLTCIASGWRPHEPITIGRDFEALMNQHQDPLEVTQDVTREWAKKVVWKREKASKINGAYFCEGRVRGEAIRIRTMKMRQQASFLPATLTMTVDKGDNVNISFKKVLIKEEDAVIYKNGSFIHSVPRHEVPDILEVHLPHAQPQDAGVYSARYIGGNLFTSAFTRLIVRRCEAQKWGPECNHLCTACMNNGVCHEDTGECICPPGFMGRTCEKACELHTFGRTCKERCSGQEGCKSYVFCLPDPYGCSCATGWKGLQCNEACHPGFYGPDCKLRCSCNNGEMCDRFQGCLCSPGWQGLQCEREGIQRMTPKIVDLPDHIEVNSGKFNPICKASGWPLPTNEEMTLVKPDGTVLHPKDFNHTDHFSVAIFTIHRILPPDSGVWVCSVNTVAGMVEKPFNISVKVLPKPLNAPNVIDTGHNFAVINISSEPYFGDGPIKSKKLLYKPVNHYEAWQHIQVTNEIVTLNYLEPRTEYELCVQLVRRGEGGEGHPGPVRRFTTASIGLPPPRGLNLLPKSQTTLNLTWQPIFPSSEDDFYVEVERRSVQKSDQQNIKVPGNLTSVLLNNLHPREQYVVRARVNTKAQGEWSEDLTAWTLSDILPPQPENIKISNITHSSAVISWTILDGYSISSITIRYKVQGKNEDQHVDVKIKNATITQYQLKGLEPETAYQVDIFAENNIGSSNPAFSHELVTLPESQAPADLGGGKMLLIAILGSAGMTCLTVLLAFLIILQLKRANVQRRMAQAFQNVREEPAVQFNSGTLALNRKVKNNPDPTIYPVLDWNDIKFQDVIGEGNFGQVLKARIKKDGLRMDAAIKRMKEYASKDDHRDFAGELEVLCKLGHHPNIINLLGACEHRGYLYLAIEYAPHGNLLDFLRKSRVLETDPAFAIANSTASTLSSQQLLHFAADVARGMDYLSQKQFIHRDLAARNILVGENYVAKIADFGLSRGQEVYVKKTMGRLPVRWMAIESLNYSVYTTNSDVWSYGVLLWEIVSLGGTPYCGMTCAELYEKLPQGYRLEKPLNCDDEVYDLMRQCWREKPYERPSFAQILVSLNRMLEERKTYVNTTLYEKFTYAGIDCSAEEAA
Outline: as §1

[7] = target: LOK (Homo sapiens, UniProt O94804); conditions: at 5 um
LOK, sequence (O94804 whole entry, species assumed): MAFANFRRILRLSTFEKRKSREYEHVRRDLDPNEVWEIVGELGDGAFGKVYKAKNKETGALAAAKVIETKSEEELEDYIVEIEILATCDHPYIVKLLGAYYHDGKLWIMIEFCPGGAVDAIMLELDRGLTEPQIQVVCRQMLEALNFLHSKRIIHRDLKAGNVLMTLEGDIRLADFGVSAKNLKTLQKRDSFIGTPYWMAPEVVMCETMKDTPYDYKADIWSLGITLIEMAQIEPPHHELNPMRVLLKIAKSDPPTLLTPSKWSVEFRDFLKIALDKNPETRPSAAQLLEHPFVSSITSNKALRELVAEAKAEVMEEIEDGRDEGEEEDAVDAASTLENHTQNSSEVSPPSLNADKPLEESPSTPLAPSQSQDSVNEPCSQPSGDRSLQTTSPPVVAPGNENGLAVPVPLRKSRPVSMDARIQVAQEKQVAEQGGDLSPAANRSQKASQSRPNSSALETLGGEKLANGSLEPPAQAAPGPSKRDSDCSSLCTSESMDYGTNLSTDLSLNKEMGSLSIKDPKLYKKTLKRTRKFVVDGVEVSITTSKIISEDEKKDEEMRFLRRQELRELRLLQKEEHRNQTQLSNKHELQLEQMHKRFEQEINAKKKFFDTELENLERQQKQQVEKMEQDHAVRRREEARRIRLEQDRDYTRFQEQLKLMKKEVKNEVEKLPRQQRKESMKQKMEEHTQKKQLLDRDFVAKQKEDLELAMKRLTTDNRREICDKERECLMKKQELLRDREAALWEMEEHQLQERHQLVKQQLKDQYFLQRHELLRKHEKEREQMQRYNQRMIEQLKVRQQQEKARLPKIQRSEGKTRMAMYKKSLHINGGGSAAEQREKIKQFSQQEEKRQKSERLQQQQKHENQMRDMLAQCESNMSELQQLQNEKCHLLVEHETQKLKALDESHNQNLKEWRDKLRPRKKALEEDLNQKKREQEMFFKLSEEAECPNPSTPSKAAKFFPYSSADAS
Outline: as §1

P38-a, sequence (Q16539 whole entry): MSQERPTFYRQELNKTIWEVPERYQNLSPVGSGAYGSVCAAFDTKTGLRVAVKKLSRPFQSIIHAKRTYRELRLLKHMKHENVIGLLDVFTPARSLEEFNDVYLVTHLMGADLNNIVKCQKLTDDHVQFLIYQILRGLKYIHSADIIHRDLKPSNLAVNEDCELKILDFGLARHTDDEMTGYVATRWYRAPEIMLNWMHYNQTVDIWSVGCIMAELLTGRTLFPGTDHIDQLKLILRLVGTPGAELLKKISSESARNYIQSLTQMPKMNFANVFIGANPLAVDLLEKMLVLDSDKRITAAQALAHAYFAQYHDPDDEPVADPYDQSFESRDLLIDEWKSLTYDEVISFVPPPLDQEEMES

Row | Compound | inhibition of kinase activity, P38-a [1] | inhibition at 5 µM [2] [%] | inhibition at 5 µM [3] [%] | inhibition at 5 µM [4] [%] | inhibition at 5 µM [5] [%] | inhibition at 5 µM [6] [%] | inhibition of kinase activity, LOK [7]
1 | CSc1nc(C(=O)Nc2ccc(Oc3ccnc(C(=O)NC4COC4)c3)c(F)c2)c(-c2ccc(F)cc2)o1 [Compound 31] | C (C=80%-89% at 5 um) | < 50 | < 50 | 50 to 79 | < 50 | < 50 | D (category D for 50-79)
2 | CSc1nc(C(=O)Nc2ccc(Oc3ccnc(C(=O)NC4CNC4)c3)c(F)c2)c(-c2ccc(F)s2)o1 [Compound 27] | D (category D for 50-79) | < 50 | < 50 | < 50 | < 50 | < 50 | E (category E is less than 50%)
3 | COc1nc(C(=O)Nc2ccc(Oc3ccnc(C(=O)NC4COC4)c3)c(F)c2)c(-c2ccc(F)cc2)o1 [Compound 39] | D (category D for 50-79) | < 50 | < 50 | 50 to 79 | < 50 | < 50 | E (category E is less than 50%)
4 | CSc1nc(C(=O)Nc2ccc(Oc3ccnc(-c4cnn(C)c4)c3)c(F)c2)c(-c2ccc(F)cc2)o1 [Compound 11] | B (B=90%-94% at 5 um) | 50 to 79 | 80 to 89 | ≥ 95 | 50 to 79 | 80 to 89 | B (B=90%-94% at 5 um)
5 | CNC(=O)c1cc(Oc2ccc(NC(=O)c3nc(OC)oc3-c3ccc(F)c(F)c3)cc2F)ccn1 [Compound 24] | D (category D for 50-79) | < 50 | 50 to 79 | 50 to 79 | < 50 | < 50 | C (C=80%-89% at 5 um)
6 | CNC(=O)c1cc(Oc2ccc(NC(=O)c3nc(OCC(F)(F)F)oc3-c3ccc(F)cc3)cc2F)ccn1 [Compound 38] | D (category D for 50-79) | 50 to 79 | 50 to 79 | 50 to 79 | < 50 | 50 to 79 | C (C=80%-89% at 5 um)
7 | CNC(=O)c1cc(Oc2ccc(NC(=O)c3nc(NC)sc3-c3ccc(F)cc3F)cc2F)ccn1 [Compound 21] | E (category E is less than 50%) | < 50 | 50 to 79 | < 50 | 50 to 79 | 50 to 79 | E (category E is less than 50%)
8 | CNC(=O)c1cc(Oc2ccc(NC(=O)c3nc(SC)oc3-c3ccc(F)cc3F)cc2)ccn1 [Compound 6] | E (category E is less than 50%) | 80 to 89 | 80 to 89 | ≥ 95 | 90 to 94 | 80 to 89 | E (category E is less than 50%)
9 | CNC(=O)c1cc(Oc2ccc(NC(=O)c3nc(NC)oc3-c3ccc(F)cc3)cc2F)ccn1 [Compound 14] | D (category D for 50-79) | < 50 | 50 to 79 | 80 to 89 | 90 to 94 | 50 to 79 | C (C=80%-89% at 5 um)
10 | CNC(=O)c1cc(Oc2ccc(NC(=O)c3nc(OC)oc3-c3ccc(F)s3)cc2F)ccn1 [Compound 25] | E (category E is less than 50%) | < 50 | < 50 | 50 to 79 | < 50 | < 50 | D (category D for 50-79)
11 | CSc1nc(C(=O)Nc2ccc(Oc3ccnc(C(=O)NCC(F)(F)F)c3)c(F)c2)c(-c2ccc(F)cc2)o1 [Compound 40] | D (category D for 50-79) | < 50 | < 50 | < 50 | < 50 | < 50 | E (category E is less than 50%)
12 | CNC(=O)c1cc(Oc2ccc(NC(=O)c3nc(SC(C)C)oc3-c3ccc(F)cc3)cc2F)ccn1 [Compound 34] | C (C=80%-89% at 5 um) | 80 to 89 | 80 to 89 | 80 to 89 | 50 to 79 | 80 to 89 | A (A=95% or greater at 5 um)
13 | CSc1nc(C(=O)Nc2ccc(Oc3cc4cnn(C)c4cc3Br)c(F)c2)c(-c2ccc(F)cc2)o1 [Compound 2] | D (category D for 50-79) | < 50 | 50 to 79 | < 50 | < 50 | 50 to 79 | D (category D for 50-79)
14 | CNC(=O)c1cc(Oc2ccc(NC(=O)c3nc(SC)oc3-c3ccc(F)s3)cc2F)ccn1 [Compound 16] | E (category E is less than 50%) | < 50 | < 50 | < 50 | < 50 | < 50 | D (category D for 50-79)
15 | CNC(=O)c1cc(Oc2ccc(NC(=O)c3nc(S(C)(=O)=O)sc3-c3ccc(F)cc3)cc2F)ccn1 [Compound 13] | E (category E is less than 50%) | < 50 | 80 to 89 | 80 to 89 | 50 to 79 | 50 to 79 | E (category E is less than 50%)
16 | CNC(=O)c1cc(Oc2ccc(NC(=O)c3nc(NC)sc3-c3ccc(F)cc3C)cc2F)ccn1 [Compound 23] | D (category D for 50-79) | < 50 | 50 to 79 | 80 to 89 | 80 to 89 | 50 to 79 | D (category D for 50-79)
17 | CNC(=O)c1cc(Oc2c(F)cc(NC(=O)c3nc(NC)sc3-c3ccc(F)cc3)cc2F)ccn1 [Compound 19] | D (category D for 50-79) | < 50 | 50 to 79 | 50 to 79 | < 50 | 50 to 79 | D (category D for 50-79)
